Patent US20100298141A1, “SUBSTITUTED PYRIDINE N-OXIDE HERBICIDES” (E. I. DU PONT DE NEMOURS AND COMPANY, priority 2007, published 2010)

Columns and labels:
[1] = tested on: green foxtail; assay: Test C pre-/postemergence test; format: in vivo, Setaria viridis
How it was run: (§1)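 Test chemicals were formulated with surfactant in a non-phytotoxic solvent and sprayed both on freshly planted seeds (preemergence) and on 1- to 4-leaf plants of 2–18 cm (postemergence). Flooded-paddy pots received compound directly into 3 cm of standing water, maintained for the test.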

[2] = tested on: mustard; assay: Test F preemergence test; format: in vivo, Brassica nigra; details: scale 0 to 100
From the text: (§2) Seeds of plant species selected from bermudagrass (Cynodon dactylon), Surinam grass (Brachiaria decumbens), large crabgrass (Digitaria sanguinalis), green foxtail (Setaria viridis), goosegrass (Eleusine indica), johnsongrass (Sorghum halepense), kochia (Kochia scoparia), pitted morningglory (Ipomoea lacunosa), purple nutsedge (Cyperus rotundus), common ragweed (Ambrosia elation), mustard (Brassica nigra), guineagrass (Panicum maximum), […] (Paspalum dilatatum), barnyardgrass (Echinochloa crus-galli), southern sandbur (Cenchrus echinatus), common sowthistle (Sonchus oleraceous), prickly […] spinosa), Italian ryegrass (Lolium multiflorum), common purslane (Portulaca oleracea), broadleaf signalgrass (Brachiaria platyphylla), common groundsel (Senecio vulgaris), common chickweed (Stellaria media), Virginia dayflower (Commelina virginica), annual bluegrass (Poa annua), naked crabgrass (Digitaria nuda), […] cochinchinensis), quackgrass (Elytrigia repens), Canada horseweed (Conyza canadensis), field bindweed (Convolvulus arvensis), […] (Bidens bipinnata), common mallow (Malva sylvestris), Russian thistle (Salsola kali), and sugarcane (Saccharum officinarum) were planted and treated preemergence with test chemicals formulated in a non-phytotoxic solvent mixture which included a surfactant. At a different time, sugarcane was treated with postemergence applications of some of the test chemicals formulated in the same manner. Plants were approximately 3- to 4-leaf stage for the postemergence treatments. Treated plants and controls were maintained in a greenhouse for 14 to 21 days, after which time all species were compared to controls and visually evaluated. […] A dash (-) response means no test result.

[3] = tested on: bermudagrass; assay: Test F preemergence test; format: in vivo, Cynodon dactylon; details: scale 0 to 100
From the text: as §2

[4] = tested on: prickly sida; assay: Test F preemergence test; format: in vivo, Sida spinosa; details: scale 0 to 100
From the text: as §2

[5] = tested on: Surinam grass; assay: Test F preemergence test; format: in vivo, Brachiaria decumbens; details: scale 0 to 100
From the text: as §2

[6] = tested on: broadleaf signalgrass; assay: Test F preemergence test; format: in vivo, Brachiaria platyphylla; details: scale 0 to 100
From the text: as §2

[7] = tested on: common ragweed; assay: Test C pre-/postemergence test; format: in vivo, Ambrosia elation
How it was run: as §1

[8] = tested on: blackgrass; assay: Test C pre-/postemergence test; format: in vivo, Alopecurus myosuroides
How it was run: as §1

[9] = tested on: kochia; assay: Test F preemergence test; format: in vivo, Kochia scoparia; details: scale 0 to 100
From the text: as §2

[10] = tested on: quackgrass; assay: Test F preemergence test; format: in vivo, Elytrigia repens; details: scale 0 to 100
From the text: as §2

[11] = tested on: corn; assay: Test A pre-/postemergence greenhouse test; format: in vivo, Zea mays; details: for Plant response rating, Corn: 0 to 100 scale where 0 is no effect and 100 is complete control; for Corn plant response rating: 0 to 100 scale
How it was run: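 Each test compound, dissolved in a non-phytotoxic solvent mixture with surfactant, was sprayed directly onto seeded soil (loam/sand blend) and, at the same moment, onto seedlings carrying one to two leaves. Around ten greenhouse days later, plants were rated visually for injury relative to untreated controls.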

[12] = tested on: common mallow; assay: Test F preemergence test; format: in vivo, Malva sylvestris; details: scale 0 to 100
From the text: as §2

[13] = tested on: dallisgrass; assay: Test F preemergence test; format: in vivo, Paspalum dilatatum; details: scale 0 to 100
From the text: as §2

[14] = 62 g ai/ha, Preemergence, scale 0 to 100
[15] = 125 g ai/ha, preemergence, scale 0 (no effect) to 100 (complete control)
[16] = Preemergence, 31 g ai/ha, scale 0 to 100 (0 no effect, 100 complete control)
[17] = preemergence, 250 g ai/ha, scale 0 (no effect) to 100 (complete control)
[18] = Postemergence, 500 g ai/ha, 0 is no effect, 100 is complete control
[19] = Preemergence, 125 g ai/ha, 0 no effect, 100 complete control
[20] = Postemergence, 62 g ai/ha, scale 0 to 100, 0 no effect, 100 complete control
[21] = Postemergence, 125 g ai/ha, scale 0 to 100, 0 no effect, 100 complete control
[22] = Postemergence, 250 g ai/ha, scale 0 to 100, 0 no effect, 100 complete control

Cn1nc(OC(F)F)c(CS(=O)(=O)c2cccc[n+]2[O-])c1C(F)(F)F [Compound 80]
Foxtail, Green plant response rating [1, 14]: 85 | Foxtail, Green plant response rating [1, 15]: 100 | Plant response rating, Foxtail, Green [1, 16]: 85 | Foxtail, Green plant response rating [1, 17]: 100 | Plant response rating, Black Mustard ([2]; 16 g ai/ha, preemergence): 0 | Black Mustard plant response rating ([2]; 62 g ai/ha, Preemergence): 0 | Black Mustard plant response rating ([2]; 125 g ai/ha, preemergence): 50 | Plant response rating, Black Mustard ([2]; Preemergence, 31 g ai/ha): 0 | Plant response rating, Bermudagrass ([3]; 16 g ai/ha, preemergence): 50 | Bermudagrass plant response rating ([3]; 62 g ai/ha, Preemergence): 90 | Bermudagrass plant response rating ([3]; 125 g ai/ha, preemergence): 98 | Plant response rating, Bermudagrass ([3]; Preemergence, 31 g ai/ha): 80 | Plant response rating, Prickly Sida ([4]; 16 g ai/ha, preemergence): 0 | Prickly Sida plant response rating ([4]; 62 g ai/ha, Preemergence): 0 | Prickly Sida plant response rating ([4]; 125 g ai/ha, preemergence): 20 | Plant response rating, Prickly Sida ([4]; Preemergence, 31 g ai/ha): 0 | Plant response rating, Surinam Grass ([5]; 16 g ai/ha, preemergence): 0 | Surinam Grass plant response rating ([5]; 125 g ai/ha, preemergence): 100 | Plant response rating, Surinam Grass ([5]; Preemergence, 62 g ai/ha): 98 | Plant response rating, Surinam Grass ([5]; Preemergence, 31 g ai/ha): 80 | Plant response rating, Signalgrass ([6]; 16 g ai/ha, preemergence): 25 | Signalgrass plant response rating ([6]; 125 g ai/ha, preemergence): 98 | Plant response rating, Signalgrass ([6]; Preemergence, 62 g ai/ha): 75 | Plant response rating, Signalgrass ([6]; Preemergence, 31 g ai/ha): 25 | Ragweed plant response rating [7, 14]: 0 | Ragweed plant response rating [7, 15]: 85 | Ragweed plant response rating [7, 17]: 100 | Blackgrass plant response rating [8, 17]: 90 | Plant response rating, Kochia ([9]; 16 g ai/ha, preemergence): 0 | Kochia plant response rating ([9]; 62 g ai/ha, Preemergence): 35 | Kochia plant response rating ([9]; 125 g ai/ha, preemergence): 90 | Plant response rating, Kochia ([9]; Preemergence, 31 g ai/ha): 0 | Plant response rating, Quackgrass ([10]; 16 g ai/ha, preemergence): 10 | Quackgrass plant response rating ([10]; 62 g ai/ha, Preemergence): 65 | Quackgrass plant response rating ([10]; 125 g ai/ha, preemergence): 75 | Plant response rating, Quackgrass ([10]; Preemergence, 31 g ai/ha): 65 | Plant response rating, Corn ([11]; Postemergence, 125 g ai/ha): 0 | Corn plant response rating [11, 18]: 50 | Corn plant response rating [11, 19]: 0 | Plant response rating, Corn ([11]; Preemergence, 500 g ai/ha): 60 | Plant response rating, Mallow ([12]; 16 g ai/ha, preemergence): 0 | Mallow plant response rating ([12]; 62 g ai/ha, Preemergence): 0 | Mallow plant response rating ([12]; 125 g ai/ha, preemergence): 65 | Plant response rating, Mallow ([12]; Preemergence, 31 g ai/ha): 0 | Plant response rating, Dallisgrass ([13]; 16 g ai/ha, preemergence): 40 | Dallisgrass plant response rating ([13]; 62 g ai/ha, Preemergence): 95 | Dallisgrass plant response rating ([13]; 125 g ai/ha, preemergence): 100 | Plant response rating, Dallisgrass ([13]; Preemergence, 31 g ai/ha): 80

Cn1nc(C(F)(F)F)c(CS(=O)(=O)c2ccc(Cl)c[n+]2[O-])c1OCC(F)(F)F [Compound 73]
Foxtail, Green plant response rating [1, 14]: 70 | Foxtail, Green plant response rating [1, 15]: 100 | Plant response rating, Foxtail, Green [1, 16]: 70 | Ragweed plant response rating [7, 14]: 70 | Ragweed plant response rating [7, 15]: 95 | Plant response rating, Ragweed [7, 16]: 60 | Ragweed plant response rating [7, 17]: 100 | Blackgrass plant response rating [8, 14]: 98 | Blackgrass plant response rating [8, 15]: 100 | Plant response rating, Blackgrass [8, 16]: 98 | Blackgrass plant response rating [8, 17]: 100 | Plant response rating, Corn ([11]; Postemergence, 125 g ai/ha): 0 | Corn plant response rating [11, 18]: 0 | Corn plant response rating [11, 19]: 0 | Plant response rating, Corn ([11]; Preemergence, 500 g ai/ha): 30

CCn1nc(C(F)(F)F)c(C(C)S(=O)(=O)c2cccc[n+]2[O-])c1OCC(F)(F)F (centres unmarked) [Compound 69]
Plant response rating (0 to 100), Foxtail, Green ([1]; Postemergence, 31 g ai/ha): 0 | Plant response rating, Foxtail, Green [1, 20]: 0 | Plant response rating, Foxtail, Green [1, 21]: 30 | Plant response rating, Foxtail, Green [1, 22]: 90 | Plant response rating (0 to 100), Ragweed ([7]; Postemergence, 31 g ai/ha): 0 | Plant response rating (0 to 100), Ragweed ([7]; Postemergence, 62 g ai/ha): 0 | Plant response rating, Ragweed [7, 21]: 0 | Plant response rating, Ragweed [7, 22]: 0 | Plant response rating (0 to 100), Blackgrass ([8]; Postemergence, 31 g ai/ha): 0 | Plant response rating, Blackgrass [8, 20]: 0 | Plant response rating, Blackgrass [8, 21]: 85 | Plant response rating, Blackgrass [8, 22]: 95 | Plant response rating, Corn ([11]; Postemergence, 125 g ai/ha): 60 | Corn plant response rating [11, 18]: 80 | Corn plant response rating [11, 19]: 0 | Plant response rating, Corn ([11]; Preemergence, 500 g ai/ha): 80

Cn1nc(C(F)(F)F)c(CS(=O)(=O)c2cccc[n+]2[O-])c1OCC(F)F [Compound 81]
Foxtail, Green plant response rating [1, 14]: 75 | Foxtail, Green plant response rating [1, 15]: 100 | Plant response rating, Foxtail, Green [1, 16]: 65 | Foxtail, Green plant response rating [1, 17]: 100 | Ragweed plant response rating [7, 14]: 80 | Ragweed plant response rating [7, 15]: 100 | Plant response rating, Ragweed [7, 16]: 0 | Ragweed plant response rating [7, 17]: 100 | Plant response rating, Blackgrass [8, 16]: 50 | Plant response rating, Corn ([11]; Postemergence, 125 g ai/ha): 0 | Corn plant response rating [11, 18]: 50 | Corn plant response rating [11, 19]: 30 | Plant response rating, Corn ([11]; Preemergence, 500 g ai/ha): 70

Cn1nc(C(F)(F)F)c(CS(=O)(=O)c2ccc(Cl)c[n+]2[O-])c1Cl [Compound 18]
Plant response rating, Foxtail, Green [1, 16]: 20 | Plant response rating (0 to 100), Foxtail, Green ([1]; Preemergence, 250 g ai/ha): 100 | Ragweed plant response rating [7, 14]: 0 | Plant response rating, Ragweed [7, 16]: 0 | Blackgrass plant response rating [8, 14]: 0 | Plant response rating, Blackgrass [8, 16]: 0 | Plant response rating (0 to 100), Blackgrass ([8]; Preemergence, 250 g ai/ha): 98 | Blackgrass plant response rating ([8]; preemergence, 125 g ai/ha, scale 0 (no effect) to 100 (complete control)): 98 | Corn plant response rating ([11]; Postemergence, 125 g ai/ha, 0 is no effect, 100 is complete control): 0 | Corn plant response rating [11, 18]: 50 | Corn plant response rating [11, 19]: 0 | Plant response rating, Corn ([11]; Preemergence, 500 g ai/ha): 0

CCc1cc[n+]([O-])c([S+]([O-])Cc2c(C(F)(F)F)nn(C)c2OCC(F)(F)F)c1 (centres unmarked) [Compound 59]
Foxtail, Green plant response rating [1, 14]: 95 | Foxtail, Green plant response rating [1, 15]: 100 | Plant response rating, Foxtail, Green [1, 16]: 0 | Foxtail, Green plant response rating [1, 17]: 100 | Ragweed plant response rating [7, 14]: 30 | Ragweed plant response rating [7, 15]: 100 | Ragweed plant response rating [7, 17]: 100 | Blackgrass plant response rating [8, 14]: 95 | Blackgrass plant response rating [8, 15]: 95 | Plant response rating, Blackgrass [8, 16]: 60 | Blackgrass plant response rating [8, 17]: 100 | Plant response rating, Corn ([11]; Postemergence, 125 g ai/ha): 50 | Corn plant response rating [11, 18]: 70 | Corn plant response rating [11, 19]: 20 | Plant response rating, Corn ([11]; Preemergence, 500 g ai/ha): 90
